Source: US20080009418A1, “Selective Inhibitors” (Alchemia LTD., priority 2004, published 2008)

Columns and labels:
Details in all cases: compound at 10 μM
Human μ-opioid (MOP) = target: T1, Human μ-opioid (MOP) (Homo sapiens, UniProt P35372); test: Radioligand binding, human μ-opioid (MOP) membranes, FlashPlate, [3H]-Naloxone
T1 construct: purchased Perkin Elmer Biosignal
Outline: (§1)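 Cloned human receptor membranes were coated onto FlashPlate wells and incubated with radioligand and compound (added from a 0.5 mM DMSO daughter plate) for 1 hour at room temperature in the dark. Scintillation counting gave percent inhibition, with DMSO defining total and reference ligand defining non-specific binding.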

Human neurokinin (NK1) = target: T2, Human neurokinin (NK1) (Homo sapiens, UniProt P25103); test: Radioligand binding, human neurokinin NK1 membranes, filtration, [125I]-Substance P
T2 construct: purchased Perkin Elmer Biosignal
T2 sequence (P25103 whole entry): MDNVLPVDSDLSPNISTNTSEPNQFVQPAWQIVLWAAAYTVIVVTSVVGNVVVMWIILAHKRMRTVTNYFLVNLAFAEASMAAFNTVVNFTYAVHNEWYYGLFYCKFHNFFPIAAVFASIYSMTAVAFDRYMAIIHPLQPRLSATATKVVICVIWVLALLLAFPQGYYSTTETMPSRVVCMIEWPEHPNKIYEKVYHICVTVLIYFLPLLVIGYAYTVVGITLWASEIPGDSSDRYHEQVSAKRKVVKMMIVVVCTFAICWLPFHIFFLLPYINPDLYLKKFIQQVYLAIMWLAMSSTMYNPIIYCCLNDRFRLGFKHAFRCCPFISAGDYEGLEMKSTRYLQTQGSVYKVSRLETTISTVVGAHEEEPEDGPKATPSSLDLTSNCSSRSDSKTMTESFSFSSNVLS
Outline: (§2)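 Percent inhibition of radioligand binding measured on recombinant human membranes: NK1 with [125I]-Substance P, KOP with [3H]-Diprenorphine. Incubation 1 h at room temperature, then harvest onto 0.3% PEI-soaked filters, cold Tris-HCl pH 7.4 washes and scintillation counting; non-specific binding from reference ligand wells.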

[1] = target: T3, Human melanin-concentrating hormone (MCH1) (Homo sapiens, UniProt Q99705); test: Radioligand binding, human melanin-concentrating hormone MCH1 membranes, FlashPlate, [125I]-S36057
T3 construct: purchased Perkin Elmer Biosignal
T3 sequence (Q99705 whole entry): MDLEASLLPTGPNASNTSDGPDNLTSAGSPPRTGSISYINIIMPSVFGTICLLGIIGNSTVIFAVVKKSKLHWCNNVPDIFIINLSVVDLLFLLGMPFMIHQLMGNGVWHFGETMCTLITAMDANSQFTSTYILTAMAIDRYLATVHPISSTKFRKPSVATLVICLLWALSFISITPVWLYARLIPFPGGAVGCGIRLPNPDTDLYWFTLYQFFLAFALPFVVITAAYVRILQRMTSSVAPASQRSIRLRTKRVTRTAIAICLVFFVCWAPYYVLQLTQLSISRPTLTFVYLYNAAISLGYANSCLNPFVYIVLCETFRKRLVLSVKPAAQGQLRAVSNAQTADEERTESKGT
Outline: as §1

Human melanocortin (MC5) = target: T4, Human melanocortin (MC5) (Homo sapiens, UniProt P33032); test: Radioligand binding, human melanocortin MC5 membranes, FlashPlate, [125I]-NDP-αMSH
T4 construct: purchased Perkin Elmer Biosignal
T4 sequence (P33032 whole entry): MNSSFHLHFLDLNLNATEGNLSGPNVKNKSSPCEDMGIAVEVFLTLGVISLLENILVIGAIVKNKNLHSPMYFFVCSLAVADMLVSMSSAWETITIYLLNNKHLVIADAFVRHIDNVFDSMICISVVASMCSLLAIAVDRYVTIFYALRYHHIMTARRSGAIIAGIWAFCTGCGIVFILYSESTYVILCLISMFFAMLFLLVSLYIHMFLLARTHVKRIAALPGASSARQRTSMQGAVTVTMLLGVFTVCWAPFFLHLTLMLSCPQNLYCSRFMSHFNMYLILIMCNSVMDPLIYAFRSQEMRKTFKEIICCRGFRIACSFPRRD
Outline: as §1

Human Melanocortin (MC4) = target: T5, Human Melanocortin (MC4) (Homo sapiens, UniProt P32245); test: Radioligand binding, human melanocortin MC4 membranes, FlashPlate, [125I]-NDP-αMSH
T5 construct: purchased Perkin Elmer Biosignal
T5 sequence (P32245 whole entry): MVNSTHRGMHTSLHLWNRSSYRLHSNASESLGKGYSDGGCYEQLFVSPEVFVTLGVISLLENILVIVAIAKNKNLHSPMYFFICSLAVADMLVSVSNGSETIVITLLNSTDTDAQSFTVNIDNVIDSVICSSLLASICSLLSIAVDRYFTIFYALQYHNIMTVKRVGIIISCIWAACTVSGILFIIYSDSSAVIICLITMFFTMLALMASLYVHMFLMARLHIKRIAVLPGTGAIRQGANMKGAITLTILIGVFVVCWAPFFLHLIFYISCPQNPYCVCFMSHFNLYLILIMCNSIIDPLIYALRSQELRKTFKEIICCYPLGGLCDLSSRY
Outline: as §1

Human Melanocortin (MC3) = target: T6, Human Melanocortin (MC3) (Homo sapiens, UniProt P41968); test: Radioligand binding, human melanocortin MC3 membranes, FlashPlate, [125I]-NDP-αMSH
T6 construct: purchased Perkin Elmer Biosignal
T6 sequence (P41968 whole entry): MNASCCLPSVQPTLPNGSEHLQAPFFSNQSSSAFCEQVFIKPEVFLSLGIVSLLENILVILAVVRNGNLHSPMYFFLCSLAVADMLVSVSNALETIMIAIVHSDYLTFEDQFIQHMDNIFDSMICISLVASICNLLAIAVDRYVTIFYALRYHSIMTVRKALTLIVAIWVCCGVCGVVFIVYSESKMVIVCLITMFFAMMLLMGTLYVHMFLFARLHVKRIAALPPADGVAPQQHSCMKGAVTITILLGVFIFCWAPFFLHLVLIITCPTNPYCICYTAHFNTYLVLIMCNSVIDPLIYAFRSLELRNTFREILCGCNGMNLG
Outline: as §1

Human κ-Opioid (KOP) = target: T7, Human κ-Opioid (KOP) (Homo sapiens, UniProt P41145); test: Radioligand binding, human κ-opioid (KOP) membranes, filtration, [3H]-Diprenorphine
T7 construct: purchased Perkin Elmer Biosignal
T7 sequence (P41145 whole entry): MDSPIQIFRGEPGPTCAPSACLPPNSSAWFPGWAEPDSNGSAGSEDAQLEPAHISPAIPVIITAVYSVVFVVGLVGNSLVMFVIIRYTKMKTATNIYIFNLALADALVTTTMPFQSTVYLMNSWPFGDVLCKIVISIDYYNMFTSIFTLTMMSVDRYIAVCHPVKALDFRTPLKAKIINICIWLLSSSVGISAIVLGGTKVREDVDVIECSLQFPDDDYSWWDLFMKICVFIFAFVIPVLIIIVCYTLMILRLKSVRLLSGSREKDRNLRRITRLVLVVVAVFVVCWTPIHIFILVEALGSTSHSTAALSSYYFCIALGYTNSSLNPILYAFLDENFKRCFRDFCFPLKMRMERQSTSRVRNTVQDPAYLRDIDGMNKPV
Outline: as §2

Human opioid (ORL1) = target: T8, Human opioid (ORL1) (Homo sapiens, UniProt P41146); test: Radioligand binding, human opioid ORL1 membranes, FlashPlate, [125I]-Nociceptin
T8 construct: purchased Perkin Elmer Biosignal
T8 sequence (P41146 whole entry): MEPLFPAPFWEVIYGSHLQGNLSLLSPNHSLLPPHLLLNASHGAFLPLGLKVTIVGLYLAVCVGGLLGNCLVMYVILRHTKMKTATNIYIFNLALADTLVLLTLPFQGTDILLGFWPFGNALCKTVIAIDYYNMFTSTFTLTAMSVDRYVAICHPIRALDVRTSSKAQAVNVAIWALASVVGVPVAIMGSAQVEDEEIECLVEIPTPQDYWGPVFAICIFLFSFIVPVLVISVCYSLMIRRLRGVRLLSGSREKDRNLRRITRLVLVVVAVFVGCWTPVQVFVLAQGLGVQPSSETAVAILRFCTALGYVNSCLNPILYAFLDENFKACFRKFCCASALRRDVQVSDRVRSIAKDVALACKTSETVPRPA
Outline: as §1

Human δ-opioid (DOP) = target: T9, Human δ-opioid (DOP) (Homo sapiens, UniProt P41143); test: Radioligand binding, human δ-opioid (DOP) membranes, FlashPlate, [3H]-Bremazocine
T9 construct: purchased Perkin Elmer Biosignal
T9 sequence (P41143 whole entry): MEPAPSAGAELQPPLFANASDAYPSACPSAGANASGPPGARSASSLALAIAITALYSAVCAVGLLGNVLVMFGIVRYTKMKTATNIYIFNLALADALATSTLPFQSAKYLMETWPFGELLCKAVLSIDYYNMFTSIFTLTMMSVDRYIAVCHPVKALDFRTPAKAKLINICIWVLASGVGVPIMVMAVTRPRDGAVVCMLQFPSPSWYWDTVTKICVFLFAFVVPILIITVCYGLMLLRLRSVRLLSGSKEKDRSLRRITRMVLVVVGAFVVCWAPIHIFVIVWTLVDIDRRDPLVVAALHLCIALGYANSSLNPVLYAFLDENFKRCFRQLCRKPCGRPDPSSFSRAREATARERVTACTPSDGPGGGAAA
Outline: as §1

Mouse urotensin (mUR2) = target: T10, Mouse urotensin (mUR2) (Mus musculus, UniProt Q8VIH9); test: Radioligand binding, mouse urotensin mUR2 membranes, FlashPlate, [125I]-Urotensin II
T10 construct: purchased Perkin Elmer Biosignal
T10 sequence (Q8VIH9 1-385): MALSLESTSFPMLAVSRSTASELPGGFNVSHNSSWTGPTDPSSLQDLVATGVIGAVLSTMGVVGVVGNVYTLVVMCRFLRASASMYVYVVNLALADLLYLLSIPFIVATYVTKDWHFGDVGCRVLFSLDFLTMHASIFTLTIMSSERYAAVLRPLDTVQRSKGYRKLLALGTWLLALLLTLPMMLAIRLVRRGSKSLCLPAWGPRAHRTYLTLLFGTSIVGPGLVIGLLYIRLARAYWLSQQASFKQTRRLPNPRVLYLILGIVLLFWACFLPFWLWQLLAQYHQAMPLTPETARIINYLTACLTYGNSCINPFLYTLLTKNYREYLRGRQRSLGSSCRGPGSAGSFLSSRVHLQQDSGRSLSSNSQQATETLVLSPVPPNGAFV
Outline: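 Cloned mouse urotensin (mUR2) receptor membranes from Perkin Elmer Biosignal were immobilized in FlashPlate microplates using a proprietary coating. Each well got 19.5 μl buffer, then 0.5 μl of DMSO, reference ligand, or compound. Adding 5 μl of [125I]-Urotensin II, diluted to 5× final concentration in binding buffer, started binding. Plates were sealed with TopSeal-A and incubated 1 hour at room temperature in the dark. Wells were counted for 30 seconds each on a TopCount after a 60-second delay, and percentage inhibition was calculated.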

[2] = target: T11, Human neuropeptide Y (NPY-Y1) (Homo sapiens, UniProt P25929); test: Radioligand binding, human neuropeptide Y NPY-Y1 membranes, FlashPlate, [125I]-PYY
T11 construct: purchased Perkin Elmer Biosignal
T11 sequence (P25929 1-384): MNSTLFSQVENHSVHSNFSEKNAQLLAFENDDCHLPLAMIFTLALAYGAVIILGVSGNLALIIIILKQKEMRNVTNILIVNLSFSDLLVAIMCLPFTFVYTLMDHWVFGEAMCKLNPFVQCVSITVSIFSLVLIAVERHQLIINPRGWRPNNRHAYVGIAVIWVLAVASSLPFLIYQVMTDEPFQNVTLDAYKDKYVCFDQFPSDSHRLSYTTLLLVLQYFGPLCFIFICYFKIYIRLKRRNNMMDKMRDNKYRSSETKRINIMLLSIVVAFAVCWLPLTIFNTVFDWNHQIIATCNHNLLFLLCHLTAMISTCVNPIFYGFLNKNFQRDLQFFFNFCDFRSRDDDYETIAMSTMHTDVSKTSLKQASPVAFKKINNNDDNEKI
Outline: as §1

T1 sequence (P35372 whole entry): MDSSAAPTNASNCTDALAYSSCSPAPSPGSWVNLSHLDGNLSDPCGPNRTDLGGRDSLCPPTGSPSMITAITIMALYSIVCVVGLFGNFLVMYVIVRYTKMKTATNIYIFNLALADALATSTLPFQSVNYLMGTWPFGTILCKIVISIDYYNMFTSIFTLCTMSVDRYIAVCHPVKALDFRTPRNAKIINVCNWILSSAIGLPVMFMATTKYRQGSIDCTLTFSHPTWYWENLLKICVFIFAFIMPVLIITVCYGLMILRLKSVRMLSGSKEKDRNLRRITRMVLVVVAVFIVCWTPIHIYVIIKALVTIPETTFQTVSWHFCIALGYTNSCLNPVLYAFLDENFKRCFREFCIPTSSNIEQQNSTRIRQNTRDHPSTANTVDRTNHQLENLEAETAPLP

COC[C@H]1OC(OCc2ccccc2)[C@H](NC(=O)CCNC(=N)N)[C@@H](OCc2ccc(-c3ccccc3)cc2)[C@@H]1O (stereo partly shown) [compound 24]
A7 radioligand binding inhibition (Human μ-opioid (MOP); human μ-opioid (MOP) membranes): − (“−” indicates less than 50% inhibition at 10 μM)
A8 radioligand binding inhibition (Human neurokinin (NK1); human neurokinin NK1 membranes): + (“+” indicates greater than 50% inhibition at 10 μM)
A6 radioligand binding inhibition ([1]; human MCH1 membranes): + (“+” indicates greater than 50% inhibition at 10 μM)
A5 radioligand binding inhibition (Human melanocortin (MC5); human melanocortin MC5 membranes): + (“+” indicates greater than 50% inhibition at 10 μM)
A4 radioligand binding inhibition (Human Melanocortin (MC4); human melanocortin MC4 membranes): − (“−” indicates less than 50% inhibition at 10 μM)
A3 radioligand binding inhibition (Human Melanocortin (MC3); human melanocortin MC3 membranes): − (“−” indicates less than 50% inhibition at 10 μM)
A2 radioligand binding inhibition (Human κ-Opioid (KOP); human κ-opioid (KOP) membranes): − (“−” indicates less than 50% inhibition at 10 μM)
A10 radioligand binding inhibition (Human opioid (ORL1); human ORL1 membranes): − (“−” indicates less than 50% inhibition at 10 μM)
A1 radioligand binding inhibition (Human δ-opioid (DOP); human δ-opioid (DOP) membranes): − (“−” indicates less than 50% inhibition at 10 μM)
A11 radioligand binding inhibition (Mouse urotensin (mUR2); mouse urotensin mUR2 membranes): − (“−” indicates less than 50% inhibition at 10 μM)
A9 radioligand binding inhibition ([2]; human NPY-Y1 membranes): − (“−” indicates less than 50% inhibition at 10 μM)

[N-]=[N+]=N[C@H]1C(OCCNC(=N)N)O[C@H](COCc2ccc3ccccc3c2)[C@@H](O)[C@@H]1OCc1ccccc1 (stereo partly shown) [compound 126]
A7 radioligand binding, percentage inhibition (Human μ-opioid (MOP); [3H]-Naloxone): − (“−” indicates less than 50% inhibition at 10 μM)
A8 radioligand binding, percentage inhibition (Human neurokinin (NK1); [125I]-Substance P): + (“+” indicates greater than 50% inhibition at 10 μM)
A6 radioligand binding, percentage inhibition ([1]; [125I]-S36057): + (“+” indicates greater than 50% inhibition at 10 μM)
A5 radioligand binding, percentage inhibition (Human melanocortin (MC5); [125I]-NDP-αMSH): + (“+” indicates greater than 50% inhibition at 10 μM)
A4 radioligand binding, percentage inhibition (Human Melanocortin (MC4); [125I]-NDP-αMSH): + (“+” indicates greater than 50% inhibition at 10 μM)
A3 radioligand binding, percentage inhibition (Human Melanocortin (MC3); [125I]-NDP-αMSH): − (“−” indicates less than 50% inhibition at 10 μM)
A2 radioligand binding, percentage inhibition (Human κ-Opioid (KOP); [3H]-Diprenorphine): − (“−” indicates less than 50% inhibition at 10 μM)
A10 radioligand binding, percentage inhibition (Human opioid (ORL1); [125I]-Nociceptin): − (“−” indicates less than 50% inhibition at 10 μM)
A1 radioligand binding, percentage inhibition (Human δ-opioid (DOP); [3H]-Bremazocine): − (“−” indicates less than 50% inhibition at 10 μM)
A11 radioligand binding, percentage inhibition (Mouse urotensin (mUR2); [125I]-Urotensin II): − (“−” indicates less than 50% inhibition at 10 μM)
A9 radioligand binding, percentage inhibition ([2]; [125I]-PYY): − (“−” indicates less than 50% inhibition at 10 μM)

N=C(N)NCCC(=O)N[C@H]1C(OCc2ccc(Cl)cc2)O[C@H](COCc2ccc3ccccc3c2)[C@@H](O)[C@@H]1OCc1ccc2ccccc2c1 (stereo partly shown) [compound 529]
A7: inhibition of radioligand binding, human μ-opioid (MOP) (Human μ-opioid (MOP); [3H]-Naloxone): − (“−” indicates less than 50% inhibition at 10 μM)
A8: inhibition of radioligand binding, human neurokinin (NK1) (Human neurokinin (NK1); [125I]-Substance P): + (“+” indicates greater than 50% inhibition at 10 μM)
A6: inhibition of radioligand binding, human melanin-concentrating hormone (MCH1) ([1]; [125I]-S36057, 10 µM): + (“+” indicates greater than 50% inhibition at 10 μM)
A5: inhibition of radioligand binding, human melanocortin (MC5) (Human melanocortin (MC5); [125I]-NDP-αMSH, 10 µM): + (“+” indicates greater than 50% inhibition at 10 μM)
A4: inhibition of radioligand binding, human melanocortin (MC4) (Human Melanocortin (MC4); [125I]-NDP-αMSH, 10 µM): + (“+” indicates greater than 50% inhibition at 10 μM)
A3: inhibition of radioligand binding, human melanocortin (MC3) (Human Melanocortin (MC3); [125I]-NDP-αMSH, 10 µM): + (“+” indicates greater than 50% inhibition at 10 μM)
A2: inhibition of radioligand binding, human κ-opioid (KOP) (Human κ-Opioid (KOP); [3H]-Diprenorphine, 10 µM): + (“+” indicates greater than 50% inhibition at 10 μM)
A10: inhibition of radioligand binding, human opioid (ORL1) (Human opioid (ORL1); [125I]-Nociceptin): − (“−” indicates less than 50% inhibition at 10 μM)
A1: inhibition of radioligand binding, human δ-opioid (DOP) (Human δ-opioid (DOP); [3H]-Bremazocine): − (“−” indicates less than 50% inhibition at 10 μM)
A11: inhibition of radioligand binding, mouse urotensin (mUR2) (Mouse urotensin (mUR2); [125I]-Urotensin II): − (“−” indicates less than 50% inhibition at 10 μM)
A9: inhibition of radioligand binding, human neuropeptide Y (NPY-Y1) ([2]; [125I]-PYY): − (“−” indicates less than 50% inhibition at 10 μM)

COCC1OC(OCc2ccc(Cl)cc2)C(NC(=O)CNC(=N)N)C(OCc2ccccc2)C1O (stereo not shown) [compound 194]
A7: inhibition of radioligand binding (Human μ-opioid (MOP); [3H]-Naloxone, FlashPlate): − (“−” indicates less than 50% inhibition at 10 μM)
A8: inhibition of radioligand binding (Human neurokinin (NK1); [125I]-Substance P, filtration): + (“+” indicates greater than 50% inhibition at 10 μM)
A6: inhibition of radioligand binding ([1]; [125I]-S36057, FlashPlate): − (“−” indicates less than 50% inhibition at 10 μM)
A5: inhibition of radioligand binding (Human melanocortin (MC5); [125I]-NDP-αMSH, FlashPlate): + (“+” indicates greater than 50% inhibition at 10 μM)
A4: inhibition of radioligand binding (Human Melanocortin (MC4); [125I]-NDP-αMSH, FlashPlate): + (“+” indicates greater than 50% inhibition at 10 μM)
A3: inhibition of radioligand binding (Human Melanocortin (MC3); [125I]-NDP-αMSH, FlashPlate): − (“−” indicates less than 50% inhibition at 10 μM)
A2: inhibition of radioligand binding (Human κ-Opioid (KOP); [3H]-Diprenorphine, filtration): − (“−” indicates less than 50% inhibition at 10 μM)
A10: inhibition of radioligand binding (Human opioid (ORL1); [125I]-Nociceptin, FlashPlate): − (“−” indicates less than 50% inhibition at 10 μM)
A1: inhibition of radioligand binding (Human δ-opioid (DOP); [3H]-Bremazocine, FlashPlate): − (“−” indicates less than 50% inhibition at 10 μM)
A11: inhibition of radioligand binding (Mouse urotensin (mUR2); [125I]-Urotensin II, FlashPlate): − (“−” indicates less than 50% inhibition at 10 μM)
A9: inhibition of radioligand binding ([2]; [125I]-PYY, FlashPlate): − (“−” indicates less than 50% inhibition at 10 μM)

CSC1OC(COCc2ccc3ccccc3c2)C(O)C(OCc2ccc3ccccc3c2)C1NC(=O)CCNC(=N)N (stereo not shown) [compound 319]
A7: inhibition of radioligand binding, human μ-opioid (MOP) (Human μ-opioid (MOP); [3H]-Naloxone): − (“−” indicates less than 50% inhibition at 10 μM)
A8: inhibition of radioligand binding, human neurokinin (NK1) (Human neurokinin (NK1); [125I]-Substance P): + (“+” indicates greater than 50% inhibition at 10 μM)
A6: inhibition of radioligand binding, human melanin-concentrating hormone (MCH1) ([1]; [125I]-S36057): − (“−” indicates less than 50% inhibition at 10 μM)
A5: inhibition of radioligand binding, human melanocortin (MC5) (Human melanocortin (MC5); [125I]-NDP-αMSH): + (“+” indicates greater than 50% inhibition at 10 μM)
A4: inhibition of radioligand binding, human melanocortin (MC4) (Human Melanocortin (MC4); [125I]-NDP-αMSH): + (“+” indicates greater than 50% inhibition at 10 μM)
A3: inhibition of radioligand binding, human melanocortin (MC3) (Human Melanocortin (MC3); [125I]-NDP-αMSH): − (“−” indicates less than 50% inhibition at 10 μM)
A2: inhibition of radioligand binding, human κ-opioid (KOP) (Human κ-Opioid (KOP); [3H]-Diprenorphine): − (“−” indicates less than 50% inhibition at 10 μM)
A10: inhibition of radioligand binding, human opioid (ORL1) (Human opioid (ORL1); [125I]-Nociceptin): − (“−” indicates less than 50% inhibition at 10 μM)
A1: inhibition of radioligand binding, human δ-opioid (DOP) (Human δ-opioid (DOP); [3H]-Bremazocine): − (“−” indicates less than 50% inhibition at 10 μM)
A11: inhibition of radioligand binding, mouse urotensin (mUR2) (Mouse urotensin (mUR2); [125I]-Urotensin II): − (“−” indicates less than 50% inhibition at 10 μM)
A9: inhibition of radioligand binding, human neuropeptide Y (NPY-Y1) ([2]; [125I]-PYY): − (“−” indicates less than 50% inhibition at 10 μM)
